Data on 60 molecules can be found in patent US5948786A, “Piperidinylpyrimidine derivatives” (Sumitomo Pharmaceuticals Company, Limited, priority 1996, dated 1999).

Structures are written as SMILES.

In the test the test system is TNF α production from mouse macrophages. Description: Inhibitory activity of compound on TNF α Production from mouse macrophages (LPS-induced PEC's). The conditions noted are these: Macrophage, LPS 10 μg/ml, 18 hours. It is filed as cell-based. The procedure: BALB/c mice (female, 5-7 weeks old, Charles River Japan, Tokyo, Japan) were injected i.p. with 1 ml of 2.4% thioglycollate broth. After 4 days, the mice were sacrificed. Peritoneal exudated cells (PEC's) were collected from the peritoneal cavity by washing with minimum essential medium (MEM, Handai biseibutubyou kenkyukai, Osaka, Japan) containing 5 U/ml heparin, 1% fetal bovine serum (FBS, Filtron, Victoria, Australia) and antibiotics. The cells were washed two times with MEM, suspended with MEM containing 10% FBS (complete MEM, cMEM) and seeded into 96-well culture plates (Costar, Cambridge, Mass., USA) at 2×10^5 cells/well. The cells were incubated for 1 hour at 37° C. in a humidified 5% CO2 incubator and washed two times to remove non-adherent cells.
TNF α was induced by 10 μg/ml of LPS (E. coli O111B4, DIFCO, Detroit, Mich., USA) the cells were cultured for 18 hours at 37° C. A compound of the present invention was dissolved in DMSO and added to the culture simultaneously with LPS. The final DMSO concentration was below 0.1%. The TNF α concentration in supernatant and recombinant mouse TNF α standard (rm-TNF α, Genzyme, Mass., USA) were incubated overnight at 4° C. in a 96-well plate coated with anti-mouse TNF α monoclonal antibody (PharMingen, San Diego, Calif., USA) that previously had been blocked with 10% FBS. Each well of the plate first was incubated at room temperature with biotinylated anti-mouse TNF α polyclonal antibodies (PharMingen) for 45 minutes, then with peroxidase-conjugated streptavidin (Kirkegaard & Perry Laboratories Inc., Gaitherburg, Md., USA) for 30 minutes. After each incubation, the plate was washed 4 to 8 times with PBS containing 0.2% Tween 20. TMB (Kirkegaard & Perry Laboratories Inc.) was the peroxidase substrate used and, the absorbance of each well was quantified at 450 nm by a microplatereader (Molecular Devices Corp., CA, USA). TNF α levels in the supernatant were quantified with rm-TNF α as the standard.

`CCCCCCCC(=O)N1CCC(c2nc(N)nc3ccccc23)CC1` [Example 21]: the inhibition at 30 µM came to 74%.

Turning to `CCCCCCCCCC(=O)N1CCC(c2nc(N)nc3ccc(OC)cc23)CC1` [Example 106], the inhibition at 30 µM stood at 54%.

In the case of `COc1ccc(C(=O)N2CCC(c3nc(N)nc4ccccc34)CC2)c(OC)c1` [Example 53], the inhibition at 30 µM amounted to 54%.

On to `CCCCCCCCC(=O)N1CCC(c2cc(Cc3ccc(Cl)cc3)nc(N)n2)CC1` [Example 248], for which the inhibition at 30 µM is -6%.

With `COc1ccc(Cc2cc(C3CCN(C(=O)c4ccccn4)CC3)nc(N)n2)cc1` [Example 194], the inhibition at 30 µM came out at 9%.

In the case of `COc1ccc(Cc2cc(C3CCN(S(=O)(=O)Cc4ccccc4)CC3)nc(N)n2)cc1` [Example 277], the inhibition at 30 µM was 32%.

Consider `CCCCCCCCC(=O)N1CCC(c2nc(N)nc3ccc(OC)cc23)CC1` [Example 105], for which the inhibition at 30 µM worked out at 54%.

In the case of `Nc1nc(C2CCN(C(=O)Cc3c(Cl)ccc(Cl)c3Cl)CC2)c2ccccc2n1` [Example 98], the inhibition at 30 µM came to 43%.

Consider `Nc1nc(C2CCN(C(=O)c3ccc(Cl)c(Cl)c3)CC2)c2ccccc2n1` [Example 62], for which the inhibition at 30 µM was found to be 55%.

For the molecule `Nc1nc(Cc2ccc(Cl)cc2)cc(C2CCN(C(=O)c3ccccc3)CC2)n1` [Example 7, 2-Amino-4-(1-benzoyl-4-piperidinyl)-6-(4-chlorophenylmethyl)pyrimidine], the inhibition at 30 µM is 58%.

Consider `Nc1nc(C2CCN(C(=O)Cc3ccc(Cl)c(Cl)c3)CC2)c2ccccc2n1` [Example 96], for which the inhibition at 30 µM amounted to 100%.

As to `COc1ccccc1CC(=O)N1CCC(c2nc(N)nc3ccccc23)CC1` [Example 77], the inhibition at 30 µM stood at 27%.

For the molecule `CCCCCCC(=O)N1CCC(c2nc(N)nc3ccc(OC)cc23)CC1` [Example 103], the inhibition at 30 µM came out at 44%.

With `CCCC(=O)N1CCC(c2cc(Cc3ccc(OC)cc3)nc(N)n2)CC1` [Example 164], the inhibition at 30 µM was 43%.

For the molecule `COc1ccccc1C(=O)N1CCC(c2nc(N)nc3ccccc23)CC1` [Example 32], the inhibition at 30 µM was determined as 30%.

For the molecule `COc1ccc(Cc2cc(C3CCN(C(=O)Cc4c(Cl)ccc(Cl)c4Cl)CC3)nc(N)n2)cc1` [Example 244], the inhibition at 30 µM came out at 98%.

`Nc1nc(C2CCN(C(=O)c3c(Cl)ccc(Cl)c3Cl)CC2)c2ccccc2n1` [Example 74]: the inhibition at 30 µM is 88%.

In the case of `CC(C)(C)OC(=O)NCCCCCCCC(=O)N1CCC(c2nc(N)nc3ccccc23)CC1` [Example 28, 2-amino-4-[1-(8-t-butoxycarbonylaminooctanoyl)-4-piperidinyl]quinazoline], the inhibition at 30 µM is 100%.

In the case of `COc1ccc(Cc2cc(C3CCN(C(=O)c4cccc5ccccc45)CC3)nc(N)n2)cc1` [Example 211], the inhibition at 30 µM is 80%.

With `CCCCCCCCC(=O)N1CCC(c2cc(-c3ccc(OC)cc3)nc(N)n2)CC1` [Example 155], the inhibition at 30 µM is 76%.

For `COc1ccc(Cc2cc(C3CCN(C(=O)c4cccc(Cl)c4)CC3)nc(N)n2)cc1` [Example 182], the inhibition at 30 µM was 46%.

As for `CCCCCCCCCC(=O)N1CCC(c2nc(N)nc3ccccc23)CC1` [Example 23], the inhibition at 30 µM came out at 67%.

As for `Nc1nc(C2CCN(C(=O)c3ccc([N+](=O)[O-])cc3)CC2)c2ccccc2n1` [Example 40], the inhibition at 30 µM was 15%.

`CCCCCCCCC(=O)N1CCC(c2nc(N)nc3ccccc23)CC1` [Example 22]: the inhibition at 30 µM is 64%.

As to `COc1ccc(CC(=O)N2CCC(c3cc(Cc4ccc(OC)cc4)nc(N)n3)CC2)cc1` [Example 224], the inhibition at 30 µM came to 73%.

In the case of `COc1ccc(Cc2cc(C3CCN(C(=O)Cc4ccc([N+](=O)[O-])cc4)CC3)nc(N)n2)cc1` [Example 233], the inhibition at 30 µM is 54%.

With `COc1ccc(Cc2cc(C3CCN(C(=O)CCNC(=O)OC(C)(C)C)CC3)nc(N)n2)cc1` [Example 176, 2-amino-4-[1-(3-t-butoxycarbonylaminopropanoyl)-4-piperidinyl]-6-(4-methoxyphenylmethyl)pyrimidine], the inhibition at 30 µM was 60%.

`COc1ccc(CC(=O)N2CCC(c3cc(Cc4ccc(Cl)cc4)nc(N)n3)CC2)cc1` [Example 251]: the inhibition at 30 µM is 98%.

For `CCCCCCCC(=O)N1CCC(c2cc(Cc3ccc(Cl)cc3)nc(N)n2)CC1` [Example 247], the inhibition at 30 µM came out at 21%.

As to `COc1ccc(Cc2cc(C3CCN(C(=O)c4c(Cl)cc(Cl)cc4Cl)CC3)nc(N)n2)cc1` [Example 220], the inhibition at 30 µM worked out at 75%.

Regarding `Nc1nc(C2CCN(C(=O)Cc3ccc([N+](=O)[O-])cc3[N+](=O)[O-])CC2)c2ccccc2n1` [Example 97], the inhibition at 30 µM was 45%.

`Nc1nc(C2CCN(C(=O)c3ccc(Cl)cc3Cl)CC2)c2ccccc2n1` [Example 59]: the inhibition at 30 µM amounted to 56%.

With `COc1ccc(C(=O)N2CCC(c3nc(N)nc4ccccc34)CC2)cc1OC` [Example 56], the inhibition at 30 µM was -28%.

Consider `Nc1nc(C2CCN(C(=O)Cc3ccccc3Cl)CC2)c2ccccc2n1` [Example 80], for which the inhibition at 30 µM came out at 28%.

Take `COc1ccc(CC(=O)N2CCC(c3nc(N)nc4ccc(Cl)cc34)CC2)cc1` [Example 131]: the inhibition at 30 µM was determined as 23%.

`NCCCCCCCC(=O)N1CCC(c2nc(N)nc3ccccc23)CC1` [Example 285, 2-amino-4-[1-(8-aminooctanoyl)-4-piperidinyl]quinazoline]: the inhibition at 30 µM is 27%.

Take `CCCCCCCC(=O)N1CCC(c2cc(-c3ccc(Cl)cc3)nc(N)n2)CC1` [Example 147]: the inhibition at 30 µM amounted to 55%.

On to `Nc1nc(C2CCN(C(=O)c3ccncc3)CC2)c2ccccc2n1` [Example 51], for which the inhibition at 30 µM was 28%.

As to `COc1ccc(CC(=O)N2CCC(c3cc(-c4ccc(Cl)cc4)nc(N)n3)CC2)cc1` [Example 151], the inhibition at 30 µM was determined as 70%.

With `COc1ccc(Cc2cc(C3CCN(C(=O)Cc4cccc(Cl)c4)CC3)nc(N)n2)cc1` [Example 226], the inhibition at 30 µM came out at 69%.

`COc1ccc(OC)c(C(=O)N2CCC(c3nc(N)nc4ccccc34)CC2)c1OC` [Example 69]: the inhibition at 30 µM was -95%.

Turning to `Nc1nc(C2CCN(C(=O)c3cc(Cl)cc(Cl)c3Cl)CC2)c2ccccc2n1` [Example 73], the inhibition at 30 µM was 23%.

`Nc1nc(CCc2ccccc2)cc(C2CCN(C(=O)Cc3ccc(Cl)cc3)CC2)n1` [Example 262]: the inhibition at 30 µM is 43%.

As to `COc1cc(CC(=O)N2CCC(c3nc(N)nc4ccccc34)CC2)cc(OC)c1` [Example 93], the inhibition at 30 µM was 60%.

For the molecule `CCCCCCCCC(=O)N1CCC(c2cc(-c3ccccc3)nc(N)n2)CC1` [Example 137], the inhibition at 30 µM worked out at 67%.

As for `Nc1nc(C2CCN(C(=O)c3cccnc3)CC2)c2ccccc2n1` [Example 50], the inhibition at 30 µM is 18%.

As to `CCCCCCCC(=O)N1CCC(c2cc(-c3ccc(OC)cc3)nc(N)n2)CC1` [Example 154], the inhibition at 30 µM was determined as 86%.

As to `COc1ccc(Cc2cc(C3CCN(C(=O)CCCl)CC3)nc(N)n2)cc1` [Example 174], the inhibition at 30 µM is 54%.

As for `COc1ccc(Cc2cc(C3CCN(C(=O)Cc4ccc([N+](=O)[O-])cc4[N+](=O)[O-])CC3)nc(N)n2)cc1` [Example 242], the inhibition at 30 µM was 31%.

Regarding `COc1ccc(Cc2cc(C3CCN(C(=O)c4ccc(Cl)cc4)CC3)nc(N)n2)cc1` [Example 183], the inhibition at 30 µM came out at 54%.

For the molecule `Nc1nc(-c2ccc(Cl)cc2)cc(C2CCN(C(=O)Cc3ccc([N+](=O)[O-])cc3)CC2)n1` [Example 153], the inhibition at 30 µM was found to be 92%.

For the molecule `Nc1nc(C2CCN(C(=O)Cc3cccc(Cl)c3)CC2)c2ccccc2n1` [Example 81], the inhibition at 30 µM is 56%.

For `COc1ccc(Cc2cc(C3CCN(C(=O)c4cc(Cl)cc(Cl)c4Cl)CC3)nc(N)n2)cc1` [Example 218], the inhibition at 30 µM was determined as 55%.

`COc1ccc(Cc2cc(C3CCN(C(=O)c4ccccc4OC)CC3)nc(N)n2)cc1` [Example 178]: the inhibition at 30 µM worked out at 76%.

As to `COc1ccc(Cc2cc(C3CCN(C(=O)Cc4ccc(Cl)c(Cl)c4)CC3)nc(N)n2)cc1` [Example 241], the inhibition at 30 µM turned out to be 95%.

For `COc1ccc(Cc2cc(C3CCN(C(=O)c4ccc(OC)c(OC)c4)CC3)nc(N)n2)cc1` [Example 201], the inhibition at 30 µM came out at 46%.

In the case of `COc1ccc(Cc2cc(C3CCN(C(=O)c4ccccc4[N+](=O)[O-])CC3)nc(N)n2)cc1` [Example 184], the inhibition at 30 µM was 73%.

As for `CCCCCCCCC(=O)N1CCC(c2cc(CCc3ccccc3)nc(N)n2)CC1` [Example 256], the inhibition at 30 µM came to 75%.

For the molecule `Nc1nc(C2CCN(C(=O)NCc3ccccc3)CC2)c2ccccc2n1` [Example 280, 2-amino-4-(1-benzyl-carbamoyl-4-piperidinyl)quinazoline], the inhibition at 30 µM was 34%.

Consider `CCCCCCCC(=O)N1CCC(c2nc(N)nc3ccc(OC)cc23)CC1` [Example 104], for which the inhibition at 30 µM amounted to 50%.
